Assay results: patent US20260231948A1, “AN HERBICIDAL COMBINATION, COMPOSITION AND METHOD OF CONTROLLING WEEDS USING THE SAME” (priority 2023, published 2026)

Experiments:
[1] = test system: Viola arvensis, Bromus spp., Lolium spp., Agropyron repens and Urtica urens; settings: Hoechst et al., 1991; cited from earlier work
Brachiaria decumbens = assay: Greenhouse post-emergence herbicidal activity on Brachiaria decumbens; assay type: in vivo
Method: The expected efficacy of a combination of L-glufosinate ammonium and the other herbicides was calculated using the well-established Colby method. Any difference between the observed and “expected” efficacy could be attributed to synergy between the two compounds.
In the Colby method, the expected (or predicted) response of a combination of herbicides is calculated by taking the product of the observed response for each individual component of the combination when applied alone, divided by 100, and subtracting this value from the sum of the observed response for each component when applied alone. An unexpected enhancement in efficacy of the combination is then determined by comparing the observed response of the combination to the expected (or predicted) response as calculated from the observed response of each individual component alone. If the observed response of the combination is greater than the expected (or predicted) response, or stated conversely, if the difference between the observed and expected response is greater than zero, then the combination is said to be synergistic or unexpectedly effective (Colby, S. R., Weeds, 1967(15), p. 20-22). […]
The percentage efficacy was calculated at 7, 14, 21 and 28 days after application (DAA). The target weed was Brachiaria decumbens, and the concentration of the herbicide and the results are recorded Table 1.

Row | SMILES | Control of weed species by glufosinate [1] | Observed efficacy (%) of isoxaflutole (60 g a.i./ha) (Brachiaria decumbens; 7 DAA) | Observed efficacy (%) of isoxaflutole (60 g a.i./ha) (Brachiaria decumbens; 14 DAA)
1 | CP(=O)(O)CCC(N)C(=O)O (racemic) [glufosinate, DL-homoalanin-4-yl(methyl)phosphinic acid] | either not combated, or only weakly combated |  | 
2 | CS(=O)(=O)c1cc(C(F)(F)F)ccc1C(=O)c1cnoc1C1CC1 [isoxaflutole] |  | 45% | 70%
